Where “and” joins values, the source holds several entries; their conditions need not be identical. Identical values can stand only once.
Columns and labels:
Estrogen receptor = target: T1, Estrogen receptor (Homo sapiens, UniProt P03372); format: functional
T1 sequence (P03372 whole entry): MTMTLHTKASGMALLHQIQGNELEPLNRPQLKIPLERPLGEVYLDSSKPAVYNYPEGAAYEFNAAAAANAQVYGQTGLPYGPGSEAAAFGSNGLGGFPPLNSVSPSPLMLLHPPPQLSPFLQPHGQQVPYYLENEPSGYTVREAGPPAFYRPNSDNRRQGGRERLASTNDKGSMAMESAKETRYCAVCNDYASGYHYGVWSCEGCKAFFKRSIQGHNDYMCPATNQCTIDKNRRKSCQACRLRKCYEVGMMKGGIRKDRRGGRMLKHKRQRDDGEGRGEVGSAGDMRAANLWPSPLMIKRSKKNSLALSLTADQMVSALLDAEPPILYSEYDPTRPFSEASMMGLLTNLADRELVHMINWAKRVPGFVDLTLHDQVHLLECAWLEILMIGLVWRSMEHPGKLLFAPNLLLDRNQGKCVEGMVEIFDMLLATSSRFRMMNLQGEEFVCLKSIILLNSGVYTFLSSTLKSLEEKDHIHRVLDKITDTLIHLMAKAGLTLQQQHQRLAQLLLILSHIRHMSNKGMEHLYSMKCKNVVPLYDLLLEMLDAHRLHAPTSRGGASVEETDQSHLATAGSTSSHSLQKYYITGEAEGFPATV

[1] = target: T2, Muscarinic acetylcholine receptor M2 (Homo sapiens, UniProt P08172)
T2 sequence (P08172 whole entry): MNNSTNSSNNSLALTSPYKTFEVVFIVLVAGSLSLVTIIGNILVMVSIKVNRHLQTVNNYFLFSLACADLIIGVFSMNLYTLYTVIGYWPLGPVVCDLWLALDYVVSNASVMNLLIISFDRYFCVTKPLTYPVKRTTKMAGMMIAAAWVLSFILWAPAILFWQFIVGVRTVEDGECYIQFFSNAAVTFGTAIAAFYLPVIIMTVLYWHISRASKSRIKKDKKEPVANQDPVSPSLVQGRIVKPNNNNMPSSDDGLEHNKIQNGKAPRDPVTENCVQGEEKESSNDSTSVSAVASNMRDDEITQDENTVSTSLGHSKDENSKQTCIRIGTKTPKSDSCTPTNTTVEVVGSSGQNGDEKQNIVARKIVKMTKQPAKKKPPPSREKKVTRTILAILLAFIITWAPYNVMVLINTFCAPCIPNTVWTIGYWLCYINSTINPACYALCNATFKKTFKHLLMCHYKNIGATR

[2] = target: 5-hydroxytryptamine receptor 5A (Homo sapiens, UniProt P47898)
Sequence of 5-hydroxytryptamine receptor 5A (P47898 whole entry): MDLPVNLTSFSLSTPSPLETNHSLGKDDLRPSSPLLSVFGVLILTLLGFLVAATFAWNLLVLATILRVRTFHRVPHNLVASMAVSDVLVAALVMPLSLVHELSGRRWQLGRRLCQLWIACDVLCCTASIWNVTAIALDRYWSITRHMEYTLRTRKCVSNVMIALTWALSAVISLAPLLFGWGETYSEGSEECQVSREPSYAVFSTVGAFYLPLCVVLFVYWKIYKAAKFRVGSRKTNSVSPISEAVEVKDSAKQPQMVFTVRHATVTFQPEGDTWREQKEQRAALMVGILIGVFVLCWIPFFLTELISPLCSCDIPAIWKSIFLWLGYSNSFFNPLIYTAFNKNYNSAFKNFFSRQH

[3] = target: Rod cGMP-specific 3',5'-cyclic phosphodiesterase subunit alpha (Homo sapiens, UniProt P16499); format: functional
Sequence of Rod cGMP-specific 3',5'-cyclic phosphodiesterase subunit alpha (P16499 whole entry): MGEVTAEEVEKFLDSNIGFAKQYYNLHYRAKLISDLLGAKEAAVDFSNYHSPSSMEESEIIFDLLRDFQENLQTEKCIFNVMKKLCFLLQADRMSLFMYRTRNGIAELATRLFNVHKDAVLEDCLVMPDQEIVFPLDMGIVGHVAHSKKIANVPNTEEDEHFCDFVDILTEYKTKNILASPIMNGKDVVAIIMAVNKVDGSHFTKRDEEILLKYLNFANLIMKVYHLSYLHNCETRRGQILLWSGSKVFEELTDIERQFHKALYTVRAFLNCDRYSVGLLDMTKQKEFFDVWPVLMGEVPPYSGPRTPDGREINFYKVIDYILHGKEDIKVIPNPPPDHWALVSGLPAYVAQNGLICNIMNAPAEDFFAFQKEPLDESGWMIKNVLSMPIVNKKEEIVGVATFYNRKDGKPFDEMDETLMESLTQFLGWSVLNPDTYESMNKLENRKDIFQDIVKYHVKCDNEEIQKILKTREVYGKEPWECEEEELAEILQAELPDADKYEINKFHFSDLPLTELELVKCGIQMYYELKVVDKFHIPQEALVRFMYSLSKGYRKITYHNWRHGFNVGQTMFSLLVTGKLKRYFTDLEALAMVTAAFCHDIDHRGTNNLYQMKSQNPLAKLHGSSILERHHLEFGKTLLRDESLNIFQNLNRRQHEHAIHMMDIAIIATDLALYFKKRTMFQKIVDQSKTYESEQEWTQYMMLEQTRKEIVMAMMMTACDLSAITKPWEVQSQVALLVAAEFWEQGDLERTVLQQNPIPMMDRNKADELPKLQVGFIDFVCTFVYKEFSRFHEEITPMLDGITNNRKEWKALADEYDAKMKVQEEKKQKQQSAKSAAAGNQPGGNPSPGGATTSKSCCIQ

[4] = target: T3, Type-2 angiotensin II receptor (Homo sapiens, UniProt P50052); format: functional
T3 sequence (P50052 whole entry): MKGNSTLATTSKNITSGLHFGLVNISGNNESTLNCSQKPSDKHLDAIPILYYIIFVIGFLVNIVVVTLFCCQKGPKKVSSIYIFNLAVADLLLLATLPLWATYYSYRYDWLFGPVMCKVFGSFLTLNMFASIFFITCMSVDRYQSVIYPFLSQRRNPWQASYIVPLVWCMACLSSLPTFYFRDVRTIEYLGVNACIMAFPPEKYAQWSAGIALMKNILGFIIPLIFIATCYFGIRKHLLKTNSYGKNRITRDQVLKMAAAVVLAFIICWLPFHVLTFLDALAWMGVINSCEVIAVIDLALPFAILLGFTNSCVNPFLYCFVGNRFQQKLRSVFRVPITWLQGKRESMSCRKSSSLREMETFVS

Substance-K receptor = target: T4, Substance-K receptor (Homo sapiens, UniProt P21452)
T4 sequence (P21452 whole entry): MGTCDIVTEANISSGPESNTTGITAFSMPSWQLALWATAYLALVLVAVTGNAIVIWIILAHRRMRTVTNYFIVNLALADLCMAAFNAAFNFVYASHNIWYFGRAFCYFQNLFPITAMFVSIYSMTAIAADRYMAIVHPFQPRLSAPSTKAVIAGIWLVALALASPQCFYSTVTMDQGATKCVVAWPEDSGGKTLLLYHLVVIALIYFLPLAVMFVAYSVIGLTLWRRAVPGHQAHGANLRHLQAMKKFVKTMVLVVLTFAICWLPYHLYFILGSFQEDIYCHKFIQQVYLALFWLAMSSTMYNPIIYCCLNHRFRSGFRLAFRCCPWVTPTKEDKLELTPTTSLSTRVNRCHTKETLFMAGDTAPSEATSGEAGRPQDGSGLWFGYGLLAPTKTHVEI

[5] = target: T5, Type-1 angiotensin II receptor (Homo sapiens, UniProt P30556)
T5 sequence (P30556 whole entry): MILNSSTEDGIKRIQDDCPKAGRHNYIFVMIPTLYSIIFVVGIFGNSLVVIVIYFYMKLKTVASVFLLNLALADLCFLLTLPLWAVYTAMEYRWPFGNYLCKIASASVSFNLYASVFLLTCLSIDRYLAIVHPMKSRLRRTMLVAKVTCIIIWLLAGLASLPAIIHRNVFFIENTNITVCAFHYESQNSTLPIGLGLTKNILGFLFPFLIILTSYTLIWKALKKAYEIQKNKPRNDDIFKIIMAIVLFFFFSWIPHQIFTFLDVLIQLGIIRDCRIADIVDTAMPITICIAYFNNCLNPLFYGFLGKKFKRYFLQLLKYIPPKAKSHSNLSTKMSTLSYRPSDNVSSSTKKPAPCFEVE

Thromboxane A2 receptor = target: T6, Thromboxane A2 receptor (Homo sapiens, UniProt P21731); format: functional, cell-based
T6 sequence (P21731 whole entry): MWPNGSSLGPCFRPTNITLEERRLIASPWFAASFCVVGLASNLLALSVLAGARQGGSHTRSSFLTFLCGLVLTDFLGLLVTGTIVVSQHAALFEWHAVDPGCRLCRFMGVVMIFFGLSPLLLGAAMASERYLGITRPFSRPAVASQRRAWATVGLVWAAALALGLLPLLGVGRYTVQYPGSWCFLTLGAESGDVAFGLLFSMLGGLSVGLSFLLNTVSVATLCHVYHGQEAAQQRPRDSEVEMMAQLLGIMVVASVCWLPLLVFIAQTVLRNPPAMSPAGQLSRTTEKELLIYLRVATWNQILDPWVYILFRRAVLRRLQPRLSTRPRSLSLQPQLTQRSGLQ

[6] = target: Hydroxycarboxylic acid receptor 2 (Homo sapiens, UniProt Q8TDS4)
Sequence of Hydroxycarboxylic acid receptor 2 (Q8TDS4 whole entry): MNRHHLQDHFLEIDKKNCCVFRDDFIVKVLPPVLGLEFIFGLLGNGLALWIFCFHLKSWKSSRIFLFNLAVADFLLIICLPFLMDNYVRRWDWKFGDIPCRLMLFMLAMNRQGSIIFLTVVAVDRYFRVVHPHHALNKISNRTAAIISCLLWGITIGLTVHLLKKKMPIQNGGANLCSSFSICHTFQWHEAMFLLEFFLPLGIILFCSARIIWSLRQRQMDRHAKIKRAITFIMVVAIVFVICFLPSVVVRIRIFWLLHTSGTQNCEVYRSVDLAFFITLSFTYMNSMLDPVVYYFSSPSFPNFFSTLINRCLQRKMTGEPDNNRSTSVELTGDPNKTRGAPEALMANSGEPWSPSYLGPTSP

D(1A) dopamine receptor = D(1A) dopamine receptor (Homo sapiens, UniProt P21728)
Sequence of D(1A) dopamine receptor (P21728 whole entry): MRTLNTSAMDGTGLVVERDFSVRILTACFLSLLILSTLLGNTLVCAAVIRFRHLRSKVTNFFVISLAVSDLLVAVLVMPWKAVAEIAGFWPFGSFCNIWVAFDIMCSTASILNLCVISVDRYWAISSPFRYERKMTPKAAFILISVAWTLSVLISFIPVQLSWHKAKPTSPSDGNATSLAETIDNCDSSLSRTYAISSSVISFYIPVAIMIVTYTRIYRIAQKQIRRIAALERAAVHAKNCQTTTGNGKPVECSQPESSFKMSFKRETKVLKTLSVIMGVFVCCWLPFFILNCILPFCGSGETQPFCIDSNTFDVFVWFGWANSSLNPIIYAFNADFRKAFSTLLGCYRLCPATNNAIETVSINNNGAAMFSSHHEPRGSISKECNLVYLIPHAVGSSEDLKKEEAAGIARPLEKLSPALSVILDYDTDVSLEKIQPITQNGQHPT
Also: assay procedure not described here.

`CC(=O)O[C@H]1CC[C@@]2(C)C(=CC[C@@H]3[C@@H]2CC[C@]2(C)C(c4cccnc4)=CC[C@@H]32)C1` [ABIRATERONE ACETATE] was tested, and the AC50 (Estrogen receptor) was > 30 µM.

In the case of `CC(C[N+](C)(C)C)OC(N)=O` (configuration not stated) [BETHANECHOL], the AC50 [1] is reported as > 30 µM.

For `CCCCc1ncc(/C=C(\Cc2cccs2)C(=O)O)n1Cc1ccc(C(=O)O)cc1` [EPROSARTAN], the AC50 [2] was > 10 µM, the AC50 [3] was > 10 µM and the AC50 [4] was > 100 µM. For the same compound, the AC50 (Substance-K receptor) was > 10 µM and the AC50 [5] was 0.005 µM and 0.0055 µM.

In the case of `CC(C)OC(=O)CCC/C=C\C[C@@H]1[C@@H](CC[C@@H](O)CCc2ccccc2)[C@H](O)C[C@@H]1O` [LATANOPROST], the AC50 (Thromboxane A2 receptor) is reported as > 10 µM.

In the case of `C[C@](N)(Cc1ccc(O)c(O)c1)C(=O)O` [METHYLDOPA], the AC50 [4] is reported as > 100 µM.

In the case of `N#Cc1ccc([C@H]2CCc3cncn32)c(F)c1` [OSILODROSTAT], the AC50 [2] is reported as > 10 µM, the AC50 [3] is reported as > 10 µM and the AC50 (Substance-K receptor) is reported as > 10 µM.

For `CCCN(CCC)C(=O)C(CCC(=O)O)NC(=O)c1ccccc1` (configuration not stated) [PROGLUMIDE], the AC50 [6] was > 10 µM.

`CN1C(=O)C(O)N=C(c2ccccc2)c2cc(Cl)ccc21` (configuration not stated) [TEMAZEPAM] was tested, and the AC50 [6] was > 10 µM.

`C/C(O)=C(\C#N)C(=O)Nc1ccc(C(F)(F)F)cc1` [TERIFLUNOMIDE] was tested, and the AC50 (Estrogen receptor) was > 30 µM.

Compound `CN1CCN(CC/C=C2/c3ccccc3Sc3ccc(S(=O)(=O)N(C)C)cc32)CC1` [THIOTHIXENE] has an AC50 (D(1A) dopamine receptor) of 0.019 µM.

Work on `C=CCN1CCCC1CNC(=O)c1cc(S(N)(=O)=O)cc(OC)c1OC` (configuration not stated) [VERALIPRIDE] yielded an AC50 (D(1A) dopamine receptor) of 0.013 µM.

From ChEMBL document CHEMBL5291721, “A preclinical secondary pharmacology resource illuminates target-adverse drug reaction associations of marketed drugs” (Nat Commun, 2023)
